Where two headings read alike, the source gives them in different places.

The target of one series is T1, VEGFR-2 (Homo sapiens, UniProt P35968).
T1 construct: purchased Millipore, United Kingdom
Nature of the series: VEGFR-2 kinase inhibition assay (Alpha Screen, phosphotyrosine antibody). The class given is biochemical. The following applies: for inhibition at 10 µM: read-out: VEGFR-2% inhibition. How it is done:
The kinase activity of VEGFR-2 was measured by use of a phosphotyrosine antibody with the
Alpha Screen system (PerkinElmer, United States) according to manufacturer’s instructions. Enzyme reactions were performed in 50 mM Tris–HCl pH 7.5, 5 mM MnCl2, 5 mM MgCl2, 0.01% Tween-20 and 2 mM DTT, containing 10 μM ATP, 0.1 μg/mL biotinylated poly-GluTyr (4:1), and 0.1 nM of VEGFR-2 (Millipore, United Kingdom). Prior to catalytic initiation with ATP, the tested compounds at final concentrations ranging from 0 to 100 μg/mL and enzyme were incubated for 5 min at room temperature. […] Plate was incubated in the dark overnight and then read by ELISA Reader (PerkinElmer, United States). Wells containing the substrate and the enzyme without compounds were used as reaction control. Wells containing biotinylated poly-GluTyr (4:1) and enzyme without ATP were used as basal control. Percent inhibition was calculated by the comparison of compounds treated to control incubations.

Another series concerns NCI 56 cell line panel. Nature of the series: NCI primary anticancer assay, mean over panel (SRB). The class given is cell-based, human. The note with it: 10–5 M. Here is the method: The selected compounds were evaluated at primary anticancer assay against a panel of 56 cancer lines at concentration 10–5 M. The human tumour cell lines were derived from nine different cancer types: leukaemia, melanoma, lung, colon, CNS, ovarian, renal, prostate, and breast cancers.
A 48 h drug exposure protocol was used and sulforhodamine B (SRB) protein assay was applied to estimate the cell viability and growth. The mean percentages GI (GI%) of the tested compounds over the full panel of cell lines are illustrated in Figure 4.
The cytotoxicity assays were performed at NCI, Bethesda, United States (against 56 cell lines). […]
Experimental drugs were solubilised in dimethyl sulfoxide at 400-fold the desired final maximum test concentration and stored frozen prior to use. […] Bound stain was subsequently solubilised with 10 mM trizma base, and the absorbance was read on an automated plate reader at a wavelength of 515 nm. […] Using the seven absorbance measurements [time zero (Tz), control growth (C), and test growth in the presence of drug at the five concentration levels (Ti)], the percentage growth was calculated at each of the drug concentration levels. Percentage GI was calculated as: [(Ti – Tz)/(C – Tz)] × 100 for concentrations for which Ti ≥ Tz [(Ti – Tz)/Tz] × 100 for concentrations for which Ti < Tz.

For the next series, the system named is HUVEC cell line. The experiment in a line: In vitro HUVEC anti-proliferative assay (alamar Blue). The class given is cell-based, human. The note with it: for HUVEC proliferation (%): 72 h, Mean ± SD, n = 3. Here is the method:
Compounds 8c, 8f, 15, 18b, and 18c were selected to be tested for their ability to in vitro inhibit VEGF-induced HUVEC cell line proliferation, using doxorubicin as a control.
The assay was performed at single dose concentration of 10 µM, where HUVEC, human (Life Technologies # C-003-5C) served as the cells’ source, in Medium 200 (Life Technologies # M-200–500), with large vessel endothelial supplement (LVES) (Life Technologies # A14608-01) and Pen-strep (Hyclone # SV30010). Alamar Blue (Life Technologies # DAL1025) was used as the fluorescent reagent.
HUVEC cells were cultured in Medium 200 with 2% LVES and 1% Pen-strep. To perform the proliferation assay, HUVEC cells were seeded at 5000 cells/50 μl/well in a 96-well black clear bottom tissue culture plate. Cells were incubated at 37 °C and 5% CO2 overnight to allow them to recover and reattach. Next day cells were treated with test compounds for 72 h. After treatment, cell proliferation was measured by Fluorescent quantitation of alamar Blue reagent. The alamar Blue assay incorporates a fluorometric/colorimetric growth indicator based on detection of metabolic activity. Specifically, resazurin, the active ingredient in the alamar Blue reagent, is blue in colour and virtually non-fluorescent. Upon entering cells, resazurin is reduced to resorufin, a compound that is red in colour and highly fluorescent. Continued cell growth maintains a reduced environment, therefore increasing the overall fluorescence and colour of the media surrounding cells. […] To perform the alamar Blue assay, […] of alamar Blue reagent was added to each well and the plate was incubated at 37 °C for an additional 2 h. Fluorescence intensity was measured at an excitation of 530 nm and an emission of 590 nm using a BioTek SynergyTM 2 microplate reader.
Cell proliferation assays were performed in triplicate at each concentration. The fluorescent intensity data were analysed using the computer software, Graphpad Prism. In the absence of the compound, the fluorescent intensity (Ft) in each data set was defined as 100%. In the absence of cells, the fluorescent intensity (Fb) in each data set was defined as 0%. The percent cell in the presence of each compound was calculated according to the following equation: % Cell = (F – Fb)/(Ft – Fb), where F = the fluorescent intensity in the presence of the compound, Fb = the fluorescent intensity in the absence of cells, and Ft = the fluorescent intensity in the absence of the compound.
(In general: Alamar Blue is a resazurin reagent that responds to reducing activity.)

For a further series, the system named is VEGFR3. On the set-up: method as in PMID 23123015, PMID 23305239. The following applies: read-out: inhibits VEGFR3; cited from earlier work.
The subject of another series is VEGFR1. Set-up: method as in PMID 23123015, PMID 23305239. The following applies: read-out: inhibits VEGFR1; cited from earlier work.
For another series, the system named is VEGFR2. Set-up: method as in PMID 23123015, PMID 23305239. The note with it: read-out: inhibits VEGFR2; cited from earlier work.
The next series deals with PDGFRβ. Set-up: method as in PMID 23123015, PMID 23305239. The note with it: read-out: inhibits PDGFRβ; cited from earlier work.
Another series concerns PDGFRα. Set-up: method as in PMID 23123015, PMID 23305239. The following applies: read-out: inhibits PDGFRα; cited from earlier work.
Setting [1] is: single concentration of 10 µM, Mean ± SD, n = 3.
[2] abbreviates: 5 concentrations 1 nM - 10 µM, Mean ± SD, n = 3, read-out: VEGFR-2 IC50.

T1 sequence (P35968 20-1356): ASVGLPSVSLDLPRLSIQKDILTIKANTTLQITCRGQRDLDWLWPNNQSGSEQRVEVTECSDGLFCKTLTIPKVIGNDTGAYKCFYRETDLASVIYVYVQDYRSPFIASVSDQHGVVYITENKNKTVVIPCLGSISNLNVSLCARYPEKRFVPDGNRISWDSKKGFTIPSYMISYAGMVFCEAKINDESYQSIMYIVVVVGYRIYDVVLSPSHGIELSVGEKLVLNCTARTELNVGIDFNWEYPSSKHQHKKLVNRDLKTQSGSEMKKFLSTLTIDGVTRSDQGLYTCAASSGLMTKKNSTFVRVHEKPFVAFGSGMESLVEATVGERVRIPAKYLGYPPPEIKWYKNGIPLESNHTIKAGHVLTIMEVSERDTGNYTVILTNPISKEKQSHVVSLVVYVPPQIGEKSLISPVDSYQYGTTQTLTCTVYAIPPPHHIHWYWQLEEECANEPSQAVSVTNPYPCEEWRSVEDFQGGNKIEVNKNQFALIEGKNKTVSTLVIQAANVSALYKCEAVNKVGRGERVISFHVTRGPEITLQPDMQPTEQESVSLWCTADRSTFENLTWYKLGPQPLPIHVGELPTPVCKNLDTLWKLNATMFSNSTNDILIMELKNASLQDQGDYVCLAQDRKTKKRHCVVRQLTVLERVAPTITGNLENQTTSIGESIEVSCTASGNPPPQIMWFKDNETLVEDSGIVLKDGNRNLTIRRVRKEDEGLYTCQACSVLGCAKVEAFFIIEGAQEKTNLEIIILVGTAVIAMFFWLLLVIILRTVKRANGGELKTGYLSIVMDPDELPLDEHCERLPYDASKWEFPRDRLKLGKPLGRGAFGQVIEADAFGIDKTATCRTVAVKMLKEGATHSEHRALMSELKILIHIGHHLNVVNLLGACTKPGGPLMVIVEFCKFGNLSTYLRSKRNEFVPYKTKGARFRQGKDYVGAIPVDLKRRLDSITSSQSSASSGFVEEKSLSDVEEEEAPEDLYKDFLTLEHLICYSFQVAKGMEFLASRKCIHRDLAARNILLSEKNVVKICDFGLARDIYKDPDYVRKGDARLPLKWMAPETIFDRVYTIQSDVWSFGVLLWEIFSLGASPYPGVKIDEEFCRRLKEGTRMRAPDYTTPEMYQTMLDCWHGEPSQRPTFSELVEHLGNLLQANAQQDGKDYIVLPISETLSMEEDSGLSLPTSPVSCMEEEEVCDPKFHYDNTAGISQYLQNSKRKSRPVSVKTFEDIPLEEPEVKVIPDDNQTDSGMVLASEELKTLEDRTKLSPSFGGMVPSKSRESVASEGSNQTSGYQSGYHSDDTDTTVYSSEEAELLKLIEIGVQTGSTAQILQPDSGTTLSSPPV

At VEGFR-2 (setting [1]), “1-[4-Chloro-3-(trifluoromethyl)phenyl)-3–(3-(6-oxo-1,6-dihydropyridazin-3-yl)phenyl]urea [Compound 8e]” returned a VEGFR-2% inhibition of 27.03 ± 3.29%.

Turning to “1-[3,4-Dichlorophenyl)-3–(6-morpholino-[1, 2, 4]triazolo[4,3-b]pyridazin-3-yl]urea [Compound 5a]”, the VEGFR-2% inhibition at VEGFR-2 (setting [1]) is reported as 5.07 ± 0.61%.

`O=C(Nc1ccc(Cl)c(Cl)c1)Nc1nnc2ccc(Cl)nn12` [Compound 3]: the melting point (usually the temperature, or range, at which the solid turns liquid) fell in the range of 173 to 175 °C. Further, the inhibition (usually the change of the read-out against control, counted positive when it falls) at 10 µM on VEGFR-2 (setting [1]) was 3.06 ± 0.45%.

Regarding `O=C(Nc1ccc(Oc2ccc(=O)[nH]n2)cc1)Nc1ccc(Cl)c(C(F)(F)F)c1` [Compound 18b, 1–(4-Chloro-3-(trifluoromethyl)phenyl)-3–(4-((6-oxo-1,6-dihydropyridazin-3-yl)oxy)phenyl)urea], the “inhibitory activity against most of the test cell lines (in words)” value with NCI 56 cell line panel is given as “weak inhibitory activity”. Moreover, the IC50 at VEGFR-2 (setting [2]) came to 60.7 ± 0.03 nM. Moreover, the “anti-proliferative activity against HUVEC (in words)” value with HUVEC cell line (10 μM) was “potent anti-proliferative activity”. The “HUVEC proliferation (%)” value with HUVEC cell line (10 µM) was determined as 2.13 ± 0.425%.

`CN[C@@H]1C[C@H]2O[C@@](C)([C@@H]1OC)n1c3ccccc3c3c4c(c5c6ccccc6n2c5c31)C(=O)NC4` [Strausporine, staurosporine, reference compound]: at VEGFR-2, the inhibition at 10 µM was 90.5 ± 4.53%.

At VEGFR-2 (setting [1]), “1-[4-Chloro-3-(trifluoromethyl)phenyl)-3–(6-morpholino-[1, 2, 4]triazolo[4,3-b]pyridazin-3-yl]urea [Compound 5b]” registered a VEGFR-2% inhibition of 7.07 ± 1.11%.

With “1-[3-Methoxyphenyl)-3–(6-morpholino-[1, 2, 4]triazolo[4,3-b]pyridazin-3-yl]urea [Compound 5c]”, the VEGFR-2% inhibition at VEGFR-2 (setting [1]) amounted to 13.10 ± 1.71%.

Turning to `O=C(Nc1ccc(-c2ccc(=O)[nH]n2)cc1)Nc1ccc(Cl)c(C(F)(F)F)c1` [Compound 8c], the IC50 on VEGFR-2 (setting [2]) was 1300 ± 140 nM. Moreover, the “HUVEC proliferation (%)” value in the series with HUVEC cell line (10 µM) stood at 14.75 ± 0.059%.

Turning to `COc1ccc(Nc2ccc(NC(=O)Nc3ccc(Cl)c(C(F)(F)F)c3)cc2)nn1` [Compound 15, 1–(4-Chloro-3-(trifluoromethyl)phenyl)-3–(4-((6-methoxypyridazin-3-yl)amino)phenyl) urea], the IC50 at VEGFR-2 (setting [2]) was 1400 ± 120 nM; on VEGFR-2 (unit given as nm, read-out: VEGFR-2 IC50 (nm)) it was 1410 nM. The “HUVEC proliferation (%)” value in the series with HUVEC cell line (10 µM) is given as 64.50 ± 2.017%. Further, the inhibition at 10 µM in the series on HUVEC cell line (Homo sapiens, HUVEC, 10 µM, read-out: growth inhibition (GI) percent against HUVEC cell line) was 35.5%.

The molecule “1-[4-((6-Chloropyridazin-3-yl)amino)phenyl)-3–(3,4-dichlorophenyl]urea [Compound 11d]” registered a VEGFR-2% inhibition on VEGFR-2 (setting [1]) of 11.93 ± 2.25%.

As for `Cc1cc(C(=O)Nc2cc(Oc3ccc4nc(NC(=O)C5CC5)cn4n3)ccc2C)n(C)n1` [TAK-593], the IC50 in the series with VEGFR3 is 1.1 nM; in the series with VEGFR1 it was 3.2 nM; in the series on VEGFR2, 0.95 nM; in the series on PDGFRβ it was 13 nM; in the series with PDGFRα, 4.3 nM.
